Data on four compounds can be found in US20230116972A1, “CD38 MODULATORS AND METHODS OF USE THEREOF” (Cytokinetics, Inc., priority 2021, published 2023).

Where two headings read alike, the source gives them in different places.

As a reminder, the IC50 is the concentration at which inhibition is half-maximal.

Data set [1] addresses T1, CYP1A2 (Homo sapiens, UniProt P05177).
T1 construct: from tissue; host or cells: human liver microsomes (pooled in the time-dependent assay)
T1 sequence (P05177 1-516): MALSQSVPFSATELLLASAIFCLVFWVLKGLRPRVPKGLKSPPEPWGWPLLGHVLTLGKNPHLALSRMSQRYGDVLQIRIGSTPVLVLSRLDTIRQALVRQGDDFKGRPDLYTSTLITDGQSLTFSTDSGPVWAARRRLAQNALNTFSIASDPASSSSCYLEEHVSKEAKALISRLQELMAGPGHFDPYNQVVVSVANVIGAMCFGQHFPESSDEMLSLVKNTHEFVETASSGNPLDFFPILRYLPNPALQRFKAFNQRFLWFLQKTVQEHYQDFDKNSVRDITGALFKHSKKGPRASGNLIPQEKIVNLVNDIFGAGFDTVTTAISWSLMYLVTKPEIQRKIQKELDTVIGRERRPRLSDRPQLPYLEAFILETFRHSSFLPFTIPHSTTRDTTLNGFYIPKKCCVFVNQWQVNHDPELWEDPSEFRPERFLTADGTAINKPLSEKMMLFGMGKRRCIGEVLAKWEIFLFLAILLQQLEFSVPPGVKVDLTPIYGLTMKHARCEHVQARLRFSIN
Kind of data set: direct inhibition of CYP450 in human liver microsomes. The data set is classed as in vitro ADME. On the procedure:
(§1) Direct inhibition: […] A Perspective of the Pharmaceutical Research and Manufacturers of America”, Drug Metabolism and Disposition, 37 (7): 1355, 2009). For 3A4, the % activity was measured using both midazolam and testosterone as probes. Each compound at 3, 10, and 50 μM was incubated with HLM, NADPH and CYP isoenzyme specific probe substrates at 37° C. Inhibition of the probe substrate metabolism was quantified using LC/MS/MS. […] Known chemical inhibitors specific for the individual CYP isoenzymes were evaluated in parallel as positive controls and these compounds produced CYP inhibition consistent with published results (Walsky & Obach RS. “Validated assays for human cytochrome P450 activities”. Drug Metab Dispos. 32(6):647-60, 2004). Note that, in Tables 6 and 7, the “Compound No” corresponds to the compound numbers in Table 1.
On the technique in general: Microsomes from liver hold many membrane-bound enzymes, among them those of drug oxidation.

The target of data set [2] is T2, CYP2B6 (Homo sapiens, UniProt P20813).
T2 construct: from tissue; host or cells: human liver microsomes (pooled in the time-dependent assay)
T2 sequence (P20813 1-491): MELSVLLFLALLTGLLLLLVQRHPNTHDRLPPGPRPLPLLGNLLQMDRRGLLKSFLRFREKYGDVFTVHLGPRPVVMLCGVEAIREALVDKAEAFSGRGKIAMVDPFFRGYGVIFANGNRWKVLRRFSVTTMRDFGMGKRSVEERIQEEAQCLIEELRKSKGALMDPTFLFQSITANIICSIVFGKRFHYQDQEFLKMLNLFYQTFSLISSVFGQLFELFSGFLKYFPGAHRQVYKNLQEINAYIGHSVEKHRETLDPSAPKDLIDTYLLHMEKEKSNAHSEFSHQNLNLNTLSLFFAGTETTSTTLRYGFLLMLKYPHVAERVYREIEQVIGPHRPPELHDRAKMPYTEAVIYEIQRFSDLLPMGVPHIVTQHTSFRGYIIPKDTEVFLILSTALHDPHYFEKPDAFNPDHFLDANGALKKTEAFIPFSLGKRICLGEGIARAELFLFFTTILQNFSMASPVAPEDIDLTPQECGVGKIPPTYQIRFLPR
Described as above. Type of data set: in vitro ADME. Particulars: for activity at 3 µM / activity at 10 µM / activity at 50 µM: % of non-inhibited control, read-out: CYP2B6 T0 % activity; for IC50: estimated from 3, 10, 50 uM, read-out: CYP2B6 T0 estimated IC50. As to the method:
as §1

The target of data set [3] is T3, CYP2C19 (Homo sapiens, UniProt P33261).
T3 construct: from tissue; host or cells: human liver microsomes (pooled in the time-dependent assay)
Described as above. The settings on record: for activity at 3 µM / activity at 10 µM / activity at 50 µM: % of non-inhibited control, read-out: CYP2C19 T0 % activity; for IC50: estimated from 3, 10, 50 uM, read-out: CYP2C19 T0 estimated IC50. Type of data set: in vitro ADME. On the procedure: as §1

Data set [4] has as its target T4, CYP2C9 (Homo sapiens, UniProt P11712).
T4 construct: from tissue; host or cells: human liver microsomes (pooled in the time-dependent assay)
The data set is described as above. The data set is classed as in vitro ADME. The settings on record: for activity at 3 µM / activity at 10 µM / activity at 50 µM: % of non-inhibited control, read-out: CYP2C9 T0 % activity; for IC50: estimated from 3, 10, 50 uM, read-out: CYP2C9 T0 estimated IC50. On the procedure: as §1

Data set [5] addresses T5, CYP2D6 (Homo sapiens, UniProt P10635).
T5 construct: from tissue; host or cells: human liver microsomes (pooled in the time-dependent assay)
The data set is described as above. The settings on record: for activity at 3 µM / activity at 10 µM / activity at 50 µM: % of non-inhibited control, read-out: CYP2D6 T0 % activity; for IC50: estimated from 3, 10, 50 uM, read-out: CYP2D6 T0 estimated IC50. Type of data set: in vitro ADME. As to the method: as §1

Data set [6] addresses T6, CYP3A4 (Homo sapiens, UniProt P08684).
T6 construct: from tissue; host or cells: human liver microsomes (pooled in the time-dependent assay)
The experiment in a line: direct inhibition of CYP450 in human liver microsomes (midazolam and testosterone probes). The data set is classed as in vitro ADME. As to the method: as §1

For data set [7], the target named is T7, human CD38 (Homo sapiens, UniProt P28907).
T7 sequence (P28907 1-300): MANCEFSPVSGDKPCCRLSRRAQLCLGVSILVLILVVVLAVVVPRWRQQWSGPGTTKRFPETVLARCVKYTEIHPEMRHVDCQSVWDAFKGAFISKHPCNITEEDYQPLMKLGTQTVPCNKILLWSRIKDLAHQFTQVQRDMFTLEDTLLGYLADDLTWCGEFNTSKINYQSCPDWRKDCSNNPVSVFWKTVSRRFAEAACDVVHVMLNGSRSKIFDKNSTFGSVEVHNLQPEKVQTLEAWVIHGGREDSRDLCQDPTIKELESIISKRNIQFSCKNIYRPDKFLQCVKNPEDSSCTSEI
The experiment in a line: human recombinant CD38 enzyme assay (hydrolysis of NAD+). Type of data set: biochemical. The settings on record: human recombinant CD38, 0.4 nM enzyme, 62.5 μM NAD+; read-out: hCD38 BioChem IC50. In a few lines:
(§2)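 Steps: compound and recombinant enzyme are mixed, NAD+ is added, and the reaction runs 60 min at room temperature. An ADH/ethanol mix containing a CD38 inhibitor halts hydrolysis and forms NADH. After NaOH quench, resazurin plus diaphorase produce fluorescent resorufin, read at 540/590 nm.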

Data set [8] addresses T8, mouse CD38 (Mus musculus, UniProt P56528).
T8 sequence (P56528 1-304): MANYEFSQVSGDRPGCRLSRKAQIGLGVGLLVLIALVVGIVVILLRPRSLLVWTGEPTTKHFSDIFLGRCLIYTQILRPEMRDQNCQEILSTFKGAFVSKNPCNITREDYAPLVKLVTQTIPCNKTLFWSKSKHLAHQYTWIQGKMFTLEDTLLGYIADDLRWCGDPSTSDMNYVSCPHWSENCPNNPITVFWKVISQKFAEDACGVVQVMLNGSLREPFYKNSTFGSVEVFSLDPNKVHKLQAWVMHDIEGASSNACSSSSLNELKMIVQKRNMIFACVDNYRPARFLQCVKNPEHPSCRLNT
The experiment in a line: mouse recombinant CD38 enzyme assay (hydrolysis of NAD+). The data set is classed as biochemical. The settings on record: read-out: mCD38 BioChem IC50. In short, it runs like this: as §2

Data set [9] addresses T9, endogenous CD38 in HL60 cells (Homo sapiens, UniProt P28907).
T9 construct: endogenous in cells; host or cells: HL60 (leukemic cells, treated with all-trans retinoic acid)
T9 sequence (P28907 1-300): T7 sequence (P28907 1-300)
Kind of data set: cellular CD38 assay in HL60 cells (cellular NAD levels). The data set is classed as cell-based. The settings on record: all-trans retinoic acid, 24 hours, read-out: hCD38 HL60 ATRA NAD Cell Diaphorase IC50. In a few lines: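 Endogenous CD38 inhibition is inferred from NAD levels in HL60 cells after 24 h compound exposure at 20000 cells per well. A lytic cycling readout (0.2 U/mL diaphorase, 0.8 U/mL alcohol dehydrogenase, resazurin, FMN, ethanol, 0.2% Triton X-100, Tris/EDTA pH 8.4) ran 60 min at ambient temperature. Resorufin fluorescence was read at 540/590 nm.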

Setting [10] is: midazolam probe, read-out: CYP3A4-M T0 % activity.
Setting [11] is: testosterone probe, read-out: CYP3A4-T T0 % activity.
The mark [12] stands for this setting: midazolam probe, read-out: CYP3A4-M T0 estimated IC50.
Setting [13] is: testosterone probe, read-out: CYP3A4-T T0 estimated IC50.

T5 sequence (P10635 whole entry): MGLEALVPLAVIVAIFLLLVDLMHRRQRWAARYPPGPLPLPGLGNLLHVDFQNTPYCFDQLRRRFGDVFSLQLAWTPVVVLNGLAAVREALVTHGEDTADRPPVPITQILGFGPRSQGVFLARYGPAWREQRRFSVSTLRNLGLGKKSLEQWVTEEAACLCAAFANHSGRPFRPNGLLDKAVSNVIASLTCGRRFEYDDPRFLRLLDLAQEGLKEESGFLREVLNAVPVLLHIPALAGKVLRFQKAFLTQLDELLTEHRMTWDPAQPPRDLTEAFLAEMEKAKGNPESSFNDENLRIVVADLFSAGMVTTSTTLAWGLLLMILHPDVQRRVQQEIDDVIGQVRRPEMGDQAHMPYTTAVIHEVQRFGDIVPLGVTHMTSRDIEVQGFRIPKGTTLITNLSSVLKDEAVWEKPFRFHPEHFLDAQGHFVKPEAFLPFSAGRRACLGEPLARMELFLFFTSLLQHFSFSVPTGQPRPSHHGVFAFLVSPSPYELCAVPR
T4 sequence (P11712 whole entry): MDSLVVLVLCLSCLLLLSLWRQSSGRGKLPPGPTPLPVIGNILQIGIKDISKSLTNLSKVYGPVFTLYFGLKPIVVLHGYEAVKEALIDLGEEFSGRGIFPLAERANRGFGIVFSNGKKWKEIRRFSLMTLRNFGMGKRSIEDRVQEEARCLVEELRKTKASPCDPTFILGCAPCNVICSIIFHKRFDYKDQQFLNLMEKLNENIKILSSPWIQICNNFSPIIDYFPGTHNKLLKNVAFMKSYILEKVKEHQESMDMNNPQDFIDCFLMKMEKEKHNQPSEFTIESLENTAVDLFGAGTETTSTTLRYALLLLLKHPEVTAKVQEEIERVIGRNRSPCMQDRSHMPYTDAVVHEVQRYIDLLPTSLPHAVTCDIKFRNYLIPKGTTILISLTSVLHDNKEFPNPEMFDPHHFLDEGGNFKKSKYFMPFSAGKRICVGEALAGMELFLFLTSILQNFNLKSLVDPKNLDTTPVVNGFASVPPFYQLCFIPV
T3 sequence (P33261 whole entry): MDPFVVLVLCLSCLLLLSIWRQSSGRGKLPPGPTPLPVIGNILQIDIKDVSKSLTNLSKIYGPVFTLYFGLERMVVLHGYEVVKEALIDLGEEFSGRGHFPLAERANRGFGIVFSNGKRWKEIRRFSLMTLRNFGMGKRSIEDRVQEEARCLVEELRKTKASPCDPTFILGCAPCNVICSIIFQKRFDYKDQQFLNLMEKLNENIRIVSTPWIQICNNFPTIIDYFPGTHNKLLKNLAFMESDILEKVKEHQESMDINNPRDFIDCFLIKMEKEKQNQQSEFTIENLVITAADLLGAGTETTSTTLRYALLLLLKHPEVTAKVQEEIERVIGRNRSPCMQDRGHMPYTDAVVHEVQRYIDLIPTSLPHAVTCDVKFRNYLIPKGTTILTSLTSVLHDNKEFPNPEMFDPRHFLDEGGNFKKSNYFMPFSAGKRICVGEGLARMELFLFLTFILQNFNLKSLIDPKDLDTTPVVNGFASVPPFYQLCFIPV
T6 sequence (P08684 whole entry): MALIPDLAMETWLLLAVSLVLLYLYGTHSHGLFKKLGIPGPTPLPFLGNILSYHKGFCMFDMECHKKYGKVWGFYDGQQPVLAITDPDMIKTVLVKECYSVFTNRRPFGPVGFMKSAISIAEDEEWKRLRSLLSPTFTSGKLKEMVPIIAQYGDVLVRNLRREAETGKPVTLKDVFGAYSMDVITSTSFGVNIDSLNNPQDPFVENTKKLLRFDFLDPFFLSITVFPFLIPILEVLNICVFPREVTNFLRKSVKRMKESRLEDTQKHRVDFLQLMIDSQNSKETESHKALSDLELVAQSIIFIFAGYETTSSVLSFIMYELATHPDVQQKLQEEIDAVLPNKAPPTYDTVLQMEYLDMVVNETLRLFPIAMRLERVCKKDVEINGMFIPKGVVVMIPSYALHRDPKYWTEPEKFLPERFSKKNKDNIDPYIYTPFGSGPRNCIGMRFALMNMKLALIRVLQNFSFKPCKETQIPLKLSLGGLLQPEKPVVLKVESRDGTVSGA

With `[2H]c1nc([2H])n(-c2nc(C)cc(C(=O)N[C@H]3CC[C@H](OCCOC)CC3)n2)c1[2H]` [Comparator Compound A, reference compound], the activity at 3 µM in data set [1] (3 uM, human liver microsomes, % of non-inhibited control, read-out: CYP1A2 T0 % activity) is 98%; in [2], 103%; in data set [3], 77%; in data set [4] it was 88%; in data set [5], 95%; in data set [6] (setting [10]), 98%. The activity at 3 µM in data set [6] (setting [11]) turned out to be 100%. Also, the activity at 10 µM in [1] (10 uM, human liver microsomes, % of non-inhibited control, read-out: CYP1A2 T0 % activity) was found to be 98%; in data set [2], 98%; in [3], 49%; in data set [4] it was 64%; in [5], 82%; in data set [6] (setting [10]), 99%. Moreover, the activity at 10 µM in [6] (setting [11]) is 97%. For the same compound, the activity at 50 µM in data set [1] (50 uM, human liver microsomes, % of non-inhibited control, read-out: CYP1A2 T0 % activity) was 92%; in [2], 57%; in data set [3], 17%; in data set [4], 24%; in [5], 42%; in data set [6] (setting [10]), 91%. Besides, the activity at 50 µM in [6] (setting [11]) was found to be 103%. Moreover, the IC50 was greater than 50 µM in data set [1] (human liver microsomes, estimated from 3, 10, 50 uM, read-out: CYP1A2 T0 estimated IC50); greater than 50 µM in [2]; roughly 10 µM in [3]; less than 50 µM in [4]; less than 50 µM in data set [5]; greater than 50 µM in [6] (setting [12]). Besides, the IC50 in data set [6] (setting [13]) is greater than 50 µM.
Regarding `CO[C@H]1CC[C@H](NC(=O)c2nccc(-n3ccnc3)n2)CC1` [Compound 145, 4-(1H-Imidazol-1-yl)-N-((1r,4r)-4-methoxycyclohexyl)pyrimidine-2-carboxamide], the IC50 in [1] was greater than 50 µM; in data set [2], greater than 50 µM; in [3], greater than 50 µM; in data set [4], greater than 50 µM; in [5], less than 50 µM; in [6] (setting [12]) it was greater than 50 µM. Further, in data set [6] (setting [13]), the IC50 was greater than 50 µM. For the same compound, the activity at 3 µM in data set [1] (human, microsomes) was determined as 94%; in [2] it was 101%; in data set [3], 92%; in [4], 97%; in data set [5], 93%; in [6] (setting [10]) it was 99%. Also, in data set [6] (setting [11]), the activity at 3 µM amounted to 96%. Further, the activity at 10 µM is 92% in data set [1] (human, microsomes); 98% in data set [2]; 93% in [3]; 99% in data set [4]; 73% in data set [5]; 89% in data set [6] (setting [10]). Also, the activity at 10 µM in [6] (setting [11]) was found to be 98%. The activity at 50 µM in data set [1] (human, microsomes) stood at 79%; in [2], 99%; in [3], 89%; in data set [4], 96%; in data set [5], 47%; in [6] (setting [10]), 75%. Further, the activity at 50 µM in [6] (setting [11]) is 95%.
On to `COC(=O)[C@H]1CC[C@H](NC(=O)c2ccnc(-c3cncn3C)n2)CC1` [Compound 107, methyl (1r,4r)-4-(2-(1-methyl-1H-imidazol-5-yl)pyrimidine-4-carboxamido)cyclohexane-1-carboxylate], for which the IC50 in [7] turned out to be 0.009 µM; in [8] it was 0.002 µM; in [9], 1.29 µM.
The corresponding values for `Cn1cncc1-c1nc(C(=O)N[C@@H]2C[C@@H]3[C@H](C2)C3(F)F)cc(C2CCOCC2)n1` [Compound 280, N-((1R,3s,5S)-6,6-difluorobicyclo[3.1.0]hexan-3-yl)-2-(1-methyl-1H-imidazol-5-yl)-6-(tetrahydro-2H-pyran-4-yl)pyrimidine-4-carboxamide] are 0.0107 µM, 0.0032 µM and 1.5 µM.
